Assay [1] deals with SUMO-1 acetylation. Put plainly: Modulation of SUMO-1 acetylation in H1299 cells expressing SUMO-1. The note with it: 500 nM TSA or 1 μM etoposide, versus untreated cells. The class given is cell-based, human. How it is done: FIG. 3. SUMO-1 is acetylated when bound to its substrates. A. A polyclonal antibody raised against a SUMO-1 peptide SEIHF{Lys-Ac}[…] acetylated at K37 was raised and purified by peptide affinity purification. The specificity of this antibody was tested first in an in vitro acetylation reaction similar to that described in FIG. 2A. SUMO-1 was incubated in the presence (lane 3) or absence (lane 2) of CBP and cold Acetyl-coenzyme A. Lane 1 contains the acetylation reaction with CBP alone without SUMO-1. Samples were subjected to SDS electrophoresis, blotted on a PDF membrane, and probed with Ac-K37-Ab in immunoblot (upper panel). After chemi-luminescence, the membrane was stained with Comassie Brilliant Blue to reveal SUMO-1 (lower panel). B. Acetylation of SUMO-1 in vivo. Control H1299 cells (lanes 1 and 4) or H1299 expressing naïve SUMO-1 (lanes 2 and 5) or a SUMO-1 harboring lysine to arginine replacements at position K37-K39 and K45-K46-K48 (SUMOK37-K48R, lanes 3 and 6) were induced with tetracycline. […] Following electrophoresis and transfer, membranes were immuno-blotted with the Ac-K37-Ab (left panel, lanes 1-3). Forty micrograms of total cell extracts were probed with the anti-Flag antibody in direct immuno-blot (right panel, lanes 4-6). The position of free SUMO-1 and of SUMO-1 conjugated to RanGap is indicated by arrows. C. Modulation of SUMO-1 acetylation by deacetylases and by DNA damaging agents. H1299 cells expressing SUMO-1 were left untreated (lanes 1 and 5) or they were treated with 500 nM TSA (lanes 2 and 6), with 1 μM etoposide (lanes 3 and 7), or with 100 mM H2O2 (lanes 4 and 8). Cell extracts were prepared in RIPA buffer, immuno-precipitated with the anti-Flag antibody and processed in immuno-blot with the Ac-K37-Ab as described in B (lanes 1-4). Total cell extracts are shown in the right panel. The position of SUMO-1, RanGaP and of SUMO-1 conjugates is indicated. Full arrows indicate non specific reactivity of the Ac-K37-Ab with heavy and light chains of the anti-Flag immuno-precipitation.
Unless otherwise indicated, cell extracts were prepared in RIPA buffer (0.1% SDS; 50 mM Tris.Cl, pH 6.8; 150 mM NaCl; 0.5% Nonidet P-40; 2 mM EDTA) supplemented with protease a protease inhibitor mixture, with TSA (500 μM) and with […] NEM as an inhibitor of de-sumoylation. Treatment with etoposide was performed at […] overnight. When probed with the anti-SUMO or anti-acetyl-K37 antibody (37-1Ab) in direct immuno-blot, membranes where treated with 6 M Guanidine for 30 minutes, followed by incubation in blocking solution. The Ac-K37 (37-1Ab) antibody was used to a 1:500 dilution in direct immuno-blots on in vitro acetylation reactions (i.e., FIG. 3A) and to a 1:250 dilution for the experiments in cells and in murine tumors. […]

Assay [2] has as its target T1, CBP (Homo sapiens, UniProt Q92793).
T1 construct: purified SUMO-1 protein and the catalytic domain of several acetyltransferases, specifically of CBP and PCAF; purchased Biomol
Kind of assay: Peptide competition of CBP-mediated acetylation of full-length SUMO-1. The assay is classed as biochemical. The note with it: cold acetylated peptide in 10 fold excess relatively to full length SUMO-1; 14C-acetyl CoA. How it is done: (§1) FIG. 2. Identification of an acetylated domain of SUMO-1 conserved among SUMO family members. A. Purified SUMO1 was subjected to an in vitro acetylation reaction in the absence (lane 2) or presence (lane 3) of CBP, and of 14C-Acetyl-Coenzyme A. Lane 1 contain CBP in the absence of SUMO-1. Reactions were assembled in 30 μl volume, and developed with autoradiography. 1/20 of the reaction mixtures were run independently and proteins were visualized with Coomassie Brilliant Blue staining (lanes 4-6). The position of SUMO-1 and CBP is indicated by arrows. B. Peptide competition experiments. The following acetylated peptides were used: K25-K27:YIK(Ac)LK(Ac)VIG (lane 2); peptide K37-K39:HFK(Ac)VK(Ac)MTT (lane 3); peptide K45-K46-K48:HLK(Ac)K(Ac)LK(Ac)ES (lane 4). Lane 1 contains the acetylation reaction with a control peptide ([…]) and lane 5 contains the acetylation reaction without peptide(s). Polypeptides were incubated in a 10 fold excess relatively to full length SUMO-1. C. Identification of lysines residues acetylated in vitro and in vivo by mass spectrometry and alignment of acetylated residues in SUMO-1 with SUMO-2 and SUMO-3. Acetylated lysines of SUMO-1 are indicated by arrows and bolded in red, and conserved residues are shown. Based on the results of Mass Spectrometry we name the domain comprised between amino acid K37 to K48 SUMO-1 Acetylated Domain, or SAD. D. Acetylation of SUMO family members. Acetylation reactions were carried out as described in A. SUMO-1 (lanes 2, 5) SUMO-2 (lanes 3, 6), or SUMO-3 (lanes 4, 7) were subjected to an acetylation reaction in absence (lanes 2-4) or presence (lanes 5-7; indicated by +) of CBP. Lane 1 contains an acetylation reaction with CBP without SUMO proteins.
Acetylation reactions were typically assembled in a 30 μl volume, containing HAT buffer (1×25 mM Tris-HCl ph 7.9; 50 mM NaCl, 1 mM DTT), 6 μl of ^14C-Acetyl-Coenzyme A (Amersham) or cold Acetyl-Coenzyme A (lithium salt, from Roche), 1-2 μg CBP, 0.5-1 μg of SUMO proteins. […]

The test system of assay [3] is H1299 cells. Kind of assay: Cell cycle analysis by flow cytometry. The assay is classed as cell-based, human. The note with it: H1299 cells infected with adenovirus expressing p53, 72 hours after infection. How it is done:
FIG. 5. […] 72 hours after infection, cells were harvested and their cell cycle profile was analyzed (see materials and methods). B-C.
Flow cytometry was performed as described previously by Knights, C. D., et al. J. Cell Biol. 173(4):533-544 (2006).

The target in assay [4] is T1, CBP. Put plainly: In vitro acetylation reaction with CBP. The assay is classed as biochemical. The note with it: purified protein, 14C-acetyl CoA, autoradiography. How it is done:
as §1, with “proteins. […]” for “proteins.”
From the mass spectrometric analysis performed on the in vitro reactions, it was determined that CBP was able to acetylate the same residues that were found acetylated in vivo, specifically K37, K39 and K48. […]

The target in assay [5] is T2, PCAF (Homo sapiens, UniProt Q92831).
T2 construct: purified SUMO-1 protein and the catalytic domain of several acetyltransferases, specifically of CBP and PCAF
Kind of assay: In vitro acetylation reaction with PCAF. The class given is biochemical. The note with it: purified protein, 14C-acetyl CoA. How it is done: Acetylation reactions were typically assembled in a 30 μl volume, containing HAT buffer (1×25 mM Tris-HCl ph 7.9; 50 mM NaCl, 1 mM DTT), 6 μl of ^14C-Acetyl-Coenzyme A (Amersham) or cold Acetyl-Coenzyme A (lithium salt, from Roche), 1-2 μg CBP, 0.5-1 μg of SUMO proteins.
The discovery of such similarities implied that this SUMO-1 domain might functionally mimic the acetylated state of similar domains of transcription factors. Two approaches were used to determine if the identified SUMO-1 domain was acetylated. First, acetylation assays were performed in vitro using purified SUMO-1 protein and the catalytic domain of several acetyltransferases, specifically of CBP and PCAF, in the presence of 14C-acetyl CoA. […] To preliminarily map the site(s) of acetylation, we tested the ability of cold synthetic polypeptides corresponding to specific SUMO-1 regions, to inhibit CBP-mediated acetylation of the full-length protein in a reaction containing 14C-acetyl CoA.

T1 sequence (Q92793 1323-1700 limits assumed): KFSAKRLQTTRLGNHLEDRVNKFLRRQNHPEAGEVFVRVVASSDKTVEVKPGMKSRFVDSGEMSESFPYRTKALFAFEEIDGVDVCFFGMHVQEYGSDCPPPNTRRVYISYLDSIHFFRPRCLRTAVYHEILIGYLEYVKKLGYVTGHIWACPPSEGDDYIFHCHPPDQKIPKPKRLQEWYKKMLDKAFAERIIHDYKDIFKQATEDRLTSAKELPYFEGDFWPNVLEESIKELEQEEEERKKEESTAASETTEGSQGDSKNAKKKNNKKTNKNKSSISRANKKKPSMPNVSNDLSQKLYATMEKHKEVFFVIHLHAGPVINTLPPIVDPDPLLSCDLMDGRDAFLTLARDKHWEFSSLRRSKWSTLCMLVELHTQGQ
T2 sequence (Q92831 503-651 limits assumed, species assumed): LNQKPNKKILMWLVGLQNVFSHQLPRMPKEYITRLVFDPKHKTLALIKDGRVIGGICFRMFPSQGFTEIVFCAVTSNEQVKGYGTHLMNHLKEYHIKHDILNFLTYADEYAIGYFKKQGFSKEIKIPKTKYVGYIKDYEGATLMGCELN

For `CC(/C=C/C(=O)NO)=C\[C@@H](C)C(=O)c1ccc(N(C)C)cc1` [TSA], in assay [1], the “acetylation signal on free SUMO-1” value is reported as “stronger than that seen in untreated cells” and the “levels of acetylation on RanGAP” value was “only modestly influenced”.
The like results for `COc1cc([C@@H]2c3cc4c(cc3[C@@H](O[C@@H]3O[C@@H]5CO[C@@H](C)O[C@H]5[C@H](O)[C@H]3O)[C@H]3COC(=O)[C@H]23)OCO4)cc(OC)c1O` [etoposide] were, in that order, “stronger than that seen in untreated cells” and “only modestly influenced”.
Take HFK(Ac)VK(Ac)MTT [K37-K39]: the “inhibition of CBP-mediated acetylation of full-length SUMO-1” value in assay [2] is “completely blocked acetylation”.
On the same count and under the same terms, in the case of HLK(Ac)K(Ac)LK(Ac)ES [K45-K46-K48] it was “completely blocked acetylation”.
“SUMO-1: small ubiquitin-like modifier protein, SEQ ID NO:1; purified from Biomol or Flag-tagged expressed in H1299 cells” showed an apoptotic cells in assay [3] of 15%. Moreover, the “acetylation by CBP” value in assay [4] is recorded as “efficiently acetylated”. Also, the “acetylation by PCAF” value in assay [5] is on record as “not by PCAF”.
With “SUMO-2: purified SUMO-2 from Biomol, SEQ ID NO:2”, in assay [4], the “acetylation by CBP” value is recorded as “robustly acetylated”.
On the same count and under the same terms, for “SUMO-3: purified SUMO-3 from Biomol, SEQ ID NO:3” the value was “robustly acetylated”.
Consider YIK(Ac)LK(Ac)VIG [K25 and K26], for which, in assay [2], the “inhibition of CBP-mediated acetylation of full-length SUMO-1” value is listed as “only weakly abrogated”.

Values taken from US20130288275A1, “COMPOSITIONS AND METHODS FOR DETECTING ACETYLATED SUMO PROTEINS” (Georgetown University, priority 2010, published 2013).
